Test [1] concerns the target human TLR7 (Homo sapiens (Human), UniProt Q9NYK1). The test is described as follows: TLR7 inhibition reporter assay (HEK-Blue cells, SEAP reporter, gardiquimod stimulation). The format is cell-based. The settings on record: HEK-Blue cells overexpressing human TLR7, gardiquimod 7.5 μM. Background: In a reporter assay the amount or activity of a reporter protein is the signal.

Test [2] concerns TLR7. Briefly: In vivo mouse TLR7 PD model (gardiquimod challenge, plasma IL-6). More on the design: species or system C57BL/6 mice. Conditions: oral. How it is done: In Vivo Mouse TLR7 and TLR9 PD Model:
(§1) Adult male C57BL/6 mice were used for the experiments. Mice (7 to 10 per group) were randomized into different treatment groups based on body weight. Mice from the respective treatment groups were administered orally with vehicle or test compound. Thirty min after the oral administration of vehicle or test compound, mice were challenged with intraperitoneal injection of gardiquimod for TLR7 PD model and CpG-ODN for TLR9 PD model. Ninety minutes after gardiquimod injection and 120 minutes after CpG-ODN injection, mice were bled under isoflurane anaesthesia and plasma IL-6 level was estimated by using commercially available ELISA kit (BD Biosciences). At the end of experiment, mean cytokine data was plotted and one way ANOVA with Dunnett's test was performed to calculate the significance of test compound treated group vs. vehicle control group. Percent inhibition of cytokine induction was calculated for test compound treated group vs vehicle control group.

For test [3], the system named is TLR9. Briefly: In vivo mouse TLR9 PD model (CpG-ODN challenge, plasma IL-6). Set-up: species or system C57BL/6 mice. The settings on record: oral. How it is done:
as §1, with “In Vivo Mouse TLR7 and TLR9 PD Model: Adult” for “Adult”

The subject of test [4] is MRL/lpr mice. The test is described as follows: MRL/lpr model of systemic lupus erythematosus (proteinuria, urinary NGAL, anti-dsDNA Ab titer, lymphadenopathy). The format is in vivo, mouse. The settings on record: oral once daily. How it is done:
MRL/lpr Model of Systemic Lupus Erythematosus (SLE) Male MRL/lpr mice of 12-14 weeks age were screened and randomized based on the titers of anti-dsDNA antibodies and urinary NGAL (Neutrophil Gelatinase Associated Lipocalin). Mice were treated orally, once daily for 8 weeks with vehicle or test compound. The effect of test compound on disease severity was assessed by measuring end points including proteinuria, urinary-NGAL, anti-dsDNA Ab titer, and lymphadenopathy. These end points were assessed before the start of treatment and after 4 and 8 weeks of treatment. At the end of experiment, all mice were euthanized by CO2 asphyxiation and kidney samples were subjected for histology. At the end of experiment, one way ANOVA with Dunnett's test was performed to calculate the significance of test compound treated group vs. vehicle control group. Percent reduction in disease severity was calculated for each parameter, for test compound treated group vs vehicle control group.

Test [5] has as its target human TLR8 (Homo sapiens (Human), UniProt Q9NR97). The test is described as follows: TLR8 inhibition reporter assay (HEK-Blue cells, SEAP reporter, R848 stimulation).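 Also: compounds tested from 0.05 nM to 50 µM, 22 h at 37 °C, SEAP measured with HEK-Blue Detection, inhibition relative to agonist plus DMSO versus a known inhibitor.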
For test [6], the target named is human TLR9 (Homo sapiens (Human), UniProt Q9NR96). The test is described as follows: TLR9 inhibition reporter assay (HEK-Blue cells, SEAP reporter, ODN2006 stimulation).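 Also: compounds tested over 0.05 nM to 50 µM, 22 h incubation, inhibition taken as SEAP signal drop from agonist plus DMSO wells toward a known inhibitor control.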
Setting [7] is: read-out: TLR8 IC50, HEK-Blue cells overexpressing human TLR8, R848 15.9 μM.
Setting [8] is: read-out: TLR9 IC50, HEK-Blue cells overexpressing human TLR9, ODN2006 5 nM.

SMILES strings stand for the structures. pIC50: −log10 of the molar value. Read-outs that look alike come from different tables or passages of the source.

Sequence of human TLR9 (Q9NR96 26-1032): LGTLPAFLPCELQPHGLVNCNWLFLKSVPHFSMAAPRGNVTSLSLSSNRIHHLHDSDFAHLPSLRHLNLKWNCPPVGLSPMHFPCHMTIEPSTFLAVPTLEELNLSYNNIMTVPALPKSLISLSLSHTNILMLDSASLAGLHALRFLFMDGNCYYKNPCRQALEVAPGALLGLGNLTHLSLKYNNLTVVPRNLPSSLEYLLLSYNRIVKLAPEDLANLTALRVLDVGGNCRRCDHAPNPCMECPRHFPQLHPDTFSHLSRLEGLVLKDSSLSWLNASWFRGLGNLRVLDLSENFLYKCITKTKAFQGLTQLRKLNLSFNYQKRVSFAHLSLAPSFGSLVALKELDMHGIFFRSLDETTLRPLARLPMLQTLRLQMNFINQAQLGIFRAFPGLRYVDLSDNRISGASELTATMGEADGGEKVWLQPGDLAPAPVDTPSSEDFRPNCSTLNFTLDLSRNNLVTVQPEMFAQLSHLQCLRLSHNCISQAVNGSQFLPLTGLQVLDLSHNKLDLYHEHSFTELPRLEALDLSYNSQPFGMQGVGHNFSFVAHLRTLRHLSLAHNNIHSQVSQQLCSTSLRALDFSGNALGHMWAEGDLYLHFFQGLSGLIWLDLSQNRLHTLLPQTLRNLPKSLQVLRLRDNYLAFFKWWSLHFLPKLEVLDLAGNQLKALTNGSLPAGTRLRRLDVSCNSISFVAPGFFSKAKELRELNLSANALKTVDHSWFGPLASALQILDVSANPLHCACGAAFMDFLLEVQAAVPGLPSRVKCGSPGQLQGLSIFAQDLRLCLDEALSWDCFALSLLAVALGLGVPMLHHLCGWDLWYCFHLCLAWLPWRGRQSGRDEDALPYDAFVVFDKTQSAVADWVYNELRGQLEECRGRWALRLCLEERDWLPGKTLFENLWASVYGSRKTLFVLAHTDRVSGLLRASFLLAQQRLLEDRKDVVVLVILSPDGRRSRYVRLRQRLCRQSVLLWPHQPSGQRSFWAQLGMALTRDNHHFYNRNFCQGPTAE
Sequence of human TLR8 (Q9NR97 27-1041): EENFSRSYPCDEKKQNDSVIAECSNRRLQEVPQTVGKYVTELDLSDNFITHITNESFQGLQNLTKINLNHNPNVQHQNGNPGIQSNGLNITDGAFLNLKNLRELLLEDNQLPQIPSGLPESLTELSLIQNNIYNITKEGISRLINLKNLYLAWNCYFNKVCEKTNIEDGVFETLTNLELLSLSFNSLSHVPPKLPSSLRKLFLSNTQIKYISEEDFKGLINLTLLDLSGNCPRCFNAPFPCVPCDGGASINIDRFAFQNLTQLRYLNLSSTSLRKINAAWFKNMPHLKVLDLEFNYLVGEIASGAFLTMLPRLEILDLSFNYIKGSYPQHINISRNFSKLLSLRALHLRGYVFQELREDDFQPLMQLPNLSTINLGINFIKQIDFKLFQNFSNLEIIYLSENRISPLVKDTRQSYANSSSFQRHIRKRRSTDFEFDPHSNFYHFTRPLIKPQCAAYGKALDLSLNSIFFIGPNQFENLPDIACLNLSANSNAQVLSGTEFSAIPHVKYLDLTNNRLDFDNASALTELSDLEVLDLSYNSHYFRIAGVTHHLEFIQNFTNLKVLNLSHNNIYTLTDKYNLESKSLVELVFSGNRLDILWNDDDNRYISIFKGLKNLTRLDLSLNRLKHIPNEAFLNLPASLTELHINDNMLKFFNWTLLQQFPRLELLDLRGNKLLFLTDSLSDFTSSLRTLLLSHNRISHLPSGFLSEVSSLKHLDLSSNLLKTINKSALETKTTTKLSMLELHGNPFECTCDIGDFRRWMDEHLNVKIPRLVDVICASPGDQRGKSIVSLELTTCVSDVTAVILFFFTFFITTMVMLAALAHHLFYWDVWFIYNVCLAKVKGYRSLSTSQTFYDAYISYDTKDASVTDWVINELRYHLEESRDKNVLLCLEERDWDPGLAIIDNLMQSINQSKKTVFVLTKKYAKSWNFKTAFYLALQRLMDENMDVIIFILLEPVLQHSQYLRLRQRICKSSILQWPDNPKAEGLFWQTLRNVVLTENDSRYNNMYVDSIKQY
Sequence of human TLR7 (Q9NYK1 27-1049): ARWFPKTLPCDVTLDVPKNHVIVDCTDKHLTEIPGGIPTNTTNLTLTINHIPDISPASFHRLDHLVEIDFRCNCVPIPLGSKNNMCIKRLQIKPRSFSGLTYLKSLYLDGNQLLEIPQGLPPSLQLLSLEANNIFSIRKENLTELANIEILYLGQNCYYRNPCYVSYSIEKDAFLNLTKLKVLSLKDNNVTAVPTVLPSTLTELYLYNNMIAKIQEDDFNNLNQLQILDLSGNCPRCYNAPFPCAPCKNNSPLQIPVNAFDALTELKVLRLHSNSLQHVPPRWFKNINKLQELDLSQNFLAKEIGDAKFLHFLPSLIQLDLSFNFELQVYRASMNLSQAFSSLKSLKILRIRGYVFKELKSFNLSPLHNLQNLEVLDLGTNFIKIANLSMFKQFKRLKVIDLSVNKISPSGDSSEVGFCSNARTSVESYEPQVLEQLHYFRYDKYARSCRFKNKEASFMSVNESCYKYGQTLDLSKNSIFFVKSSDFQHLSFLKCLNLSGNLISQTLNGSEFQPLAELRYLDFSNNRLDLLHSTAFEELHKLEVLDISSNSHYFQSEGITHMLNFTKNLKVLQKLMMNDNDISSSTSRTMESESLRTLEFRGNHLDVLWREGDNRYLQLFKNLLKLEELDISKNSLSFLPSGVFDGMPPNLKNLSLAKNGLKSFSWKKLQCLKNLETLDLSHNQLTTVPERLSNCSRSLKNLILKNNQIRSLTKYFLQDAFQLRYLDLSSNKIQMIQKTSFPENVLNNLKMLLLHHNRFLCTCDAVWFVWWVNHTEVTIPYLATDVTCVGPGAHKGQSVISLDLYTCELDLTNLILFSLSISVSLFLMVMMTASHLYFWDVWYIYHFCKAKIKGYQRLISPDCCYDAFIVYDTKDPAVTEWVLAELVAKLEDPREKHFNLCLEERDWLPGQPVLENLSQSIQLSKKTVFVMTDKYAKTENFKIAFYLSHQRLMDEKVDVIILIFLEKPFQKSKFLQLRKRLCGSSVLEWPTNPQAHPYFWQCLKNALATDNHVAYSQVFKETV

As to `Cc1cc(-c2[nH]c3ccc(C4CCNCC4)cc3c2C(C)C)cc(C)n1.Cl` [Example 1, 2-(2,6-dimethylpyridin-4-yl)-3-isopropyl-5-(piperidin-4-yl)-1H-indole hydrochloride], the pIC50 (as a rule, the negative decadic logarithm of the IC50, by convention in mol/L) in test [1] is 9.15; in test [5] (setting [7]), 8.49. Also, the “% inhibition of IL6” value is 28% in test [2] (0.03 mg/kg); 66% in test [2] (0.05 mg/kg); 98% in test [2] (0.5 mg/kg); 16% in test [3] (1 mg/kg); 29% in test [3] (3 mg/kg); 33% in test [3] (10 mg/kg). Moreover, the “% inhibition of IL6” value in test [3] (30 mg/kg) came out at 38%. Moreover, the “% inhibition Anti-dsDNA antibody titer” value in test [4] (0.1 mg/kg) is 1%; in test [4] (1 mg/kg) it was 14%; in test [4] (5 mg/kg), 20%; in test [4] (20 mg/kg), 53%. Also, the “% inhibition IL-10” value is given as 24% in test [4] (0.1 mg/kg), 32% in test [4] (1 mg/kg), 39% in test [4] (5 mg/kg) and 53% in test [4] (20 mg/kg). The “% inhibition IL-12p40” value in test [4] (0.1 mg/kg) is recorded as 12%; in test [4] (1 mg/kg), 26%; in test [4] (5 mg/kg), 30%; in test [4] (20 mg/kg) it was 35%. Besides, the “% inhibition Lymphadenopathy” value in test [4] (0.1 mg/kg) is given as 3%; in test [4] (1 mg/kg), 31%; in test [4] (5 mg/kg), 33%; in test [4] (20 mg/kg), 53%. The “% inhibition Proteinuria” value in test [4] (0.1 mg/kg) turned out to be 69%; in test [4] (1 mg/kg), 92%; in test [4] (5 mg/kg) it was 92%; in test [4] (20 mg/kg) it was 93%. The “% inhibition Urinary NGAL” value in test [4] (0.1 mg/kg) is 52%; in test [4] (1 mg/kg), 69%; in test [4] (5 mg/kg), 72%; in test [4] (20 mg/kg) it was 81%.

For the compound `Cc1cc(-c2[nH]c3ccc(C4CCN(CC(=O)N(C)C)CC4)cc3c2C(C)C)cc(C)n1` [Example 308, 2-(4-(2-(2,6-dimethylpyridin-4-yl)-3-isopropyl-1H-indol-5-yl)piperidin-1-yl)-N,N-dimethylacetamide], the figures for the negative-log IC50 (pIC50) in test [1], in test [5] (setting [7]) and in test [6] (setting [8]) were 8.82, 8.37 and 6.44, respectively. The “% inhibition of IL6” value amounted to 30% in test [2] (0.002 mg/kg), 47% in test [2] (0.008 mg/kg), 81% in test [2] (0.032 mg/kg) and 98% in test [2] (0.160 mg/kg).

For the compound `CNC(=O)CN1CCC(c2ccc3[nH]c(-c4cc(C)nc(C)c4)c(C(C)C)c3c2)CC1` [Example 309, 2-(4-(2-(2,6-dimethylpyridin-4-yl)-3-isopropyl-1H-indol-5-yl)piperidin-1-yl)-N-methylacetamide], the pIC50 in test [1] was 8.70; in test [5] (setting [7]), 8.26; in test [6] (setting [8]), 6.10. The “% inhibition of IL6” value in test [2] (0.0005 mg/kg) is 12%; in test [2] (0.005 mg/kg) it was 65%; in test [2] (0.05 mg/kg) it was 89%; in test [2] (0.25 mg/kg), 91%.

Take `Cc1cc(-c2[nH]c3ccc(C4CCN(CC5CCOC5)CC4)cc3c2C(C)C)cc(C)n1` (centres unmarked) [Example 469, 2-(2,6-dimethylpyridin-4-yl)-3-isopropyl-5-(1-((tetrahydrofuran-3-yl)methyl)piperidin-4-yl)-1H-indole]: the pIC50 in test [1] was 8.68; in test [5] (setting [7]), 8.54; in test [6] (setting [8]), 6.55.

With `Cc1cc(-c2[nH]c3ccc(C4CCNCC4(F)F)cc3c2C(C)C)cc(C)n1` (single isomer, unassigned) [Example 489A, 5-(3,3-difluoropiperidin-4-yl)-2-(2,6-dimethylpyridin-4-yl)-3-isopropyl-1H-indole], the pIC50 in test [1] was 8.96; in test [5] (TLR8 IC50, HEK-Blue cells overexpressing human TLR8, R848 15.9 μM), 7.86; in test [6] (TLR9 IC50, HEK-Blue cells overexpressing human TLR9, ODN2006 5 nM), 6.07.

On to `CCc1c(-c2ccnc(C)c2)[nH]c2ccc(C3CCN(C(=O)C4CCNCC4c4ccccc4)CC3)cc12` (centres unmarked) [Example 627, (4-(3-ethyl-2-(2-methylpyridin-4-yl)-1H-indol-5-yl)piperidin-1-yl)(3-phenylpiperidin-4-yl)methanone], for which the pIC50 in test [1] is 6.27; in test [5] (setting [7]), 6.49; in test [6] (setting [8]), 6.26.

In the case of `Cc1cc(-c2[nH]c3ccc(C4CCN(CC5CCCC5)CC4)cc3c2C(C)C)cc(C)n1` [Example 468, 5-(1-(cyclopentylmethyl)piperidin-4-yl)-2-(2,6-dimethylpyridin-4-yl)-3-isopropyl-1H-indole], the pIC50 in test [1] is 7.75; in test [5] (setting [7]), 7.45; in test [6] (setting [8]) it was 5.87.

`CCc1c(-c2ccnc(Cl)c2)[nH]c2ccc(C3CCN(C4CCN(CC(C)C)CC4)CC3)cc12` [Example 758, 2-(2-chloropyridin-4-yl)-3-ethyl-5-(1′-isobutyl-[1,4′-bipiperidin]-4-yl)-1H-indole]: the pIC50 was 6.01 in test [1], 6.87 in test [5] (setting [7]) and 6.12 in test [6] (setting [8]).

Regarding `Cc1cc(-c2[nH]c3ccc(C4CCN(C(CF)CF)CC4)cc3c2C(C)C)cc(C)n1` [Example 473, 5-(1-(1,3-difluoropropan-2-yl)piperidin-4-yl)-2-(2,6-dimethylpyridin-4-yl)-3-isopropyl-1H-indole], the pIC50 in test [1] is 8.00; in test [5] (setting [7]) it was 7.68; in test [6] (setting [8]) it was 6.08.

For the compound `Cc1cc(-c2[nH]c3ccc(C4CCN(C(=O)CN5CC[C@H](N)C5=O)CC4)cc3c2C(C)C)cc(C)n1` [Example 188, (S)-3-amino-1-(2-(4-(2-(2,6-dimethylpyridin-4-yl)-3-isopropyl-1H-indol-5-yl)piperidin-1-yl)-2-oxoethyl)pyrrolidin-2-one], the pIC50 is 8.68 in test [1], 7.89 in test [5] (setting [7]) and 6.01 in test [6] (setting [8]).

As to `Cc1cc(-c2[nH]c3ccc(C4CCN(CC(C)(C)C(=O)O)CC4)cc3c2C(C)C)cc(C)n1` [Example 321, 3-(4-(2-(2,6-dimethylpyridin-4-yl)-3-isopropyl-1H-indol-5-yl)piperidin-1-yl)-2,2-dimethylpropanoic acid], the pIC50 was 7.77 in test [1], 7.16 in test [5] (setting [7]) and less than 4.30 in test [6] (setting [8]).
